In patent US20240360137A1 (Novartis AG, priority 2023, published 2024):

Legend:
Assay in all cases: CDKi biochemical assay (TR-FRET, phosphorylation of S780 on RB1 peptide)
[1] = biological target: CDK1/CyclinB1 (Homo sapiens, UniProt P06493); settings: CDK1/CyclinB1 10 pM, 1 mM ATP, 60 min at 25° C.
Method: (§1) Biochemical assays measured the inhibitory effects of compounds in this disclosure on the enzymatic activity of CDK enzyme in complex with Cyclin protein partner by phosphorylation of Ser-780 (S780) on retinoblastoma protein peptide (RB1) in the presence of 1 mM adenosime-5-triphosphate (ATP) and varying concentration of test compound in 20 mM 2-[4-(2-hydroxyethyl)paperazin-1-yl] ethanesulfonic acid (HEPES), pH 7.5, 10 mM MgCl2, 1 mM dithiothreitol (DTT), 0.01% bovine serum albumin (BSA), 0.005% Tween 20. Total Reaction volume of 10 μL proceeded for 60 minutes at room temperature (25° C.) and were quenched with 5 μL of 200 mM 2′,2″,2′″-(Ethane-1,2-diyldinitrilo)tetraacetic acid (EDTA) pH 8.0 before addition of 5 μL detection solution containing 100 nM fluorophore conjugate streptavidin allophycocyanin (SA-APC), 2 nM Europium labelled Anti-p-RB(S780)-K (Perkin Elmer, 64CUSKAY), 50 mM HEPES, pH 7.5, 400 mM potassium fluoride (KF), 0.1% BSA, and 0.01% Tween-20. Phosphorylation of S780 on RB1 peptide (His-MBP-RB1[773-924]-SEQ ID NO. 9) was detected by TR-FRET after 3 hour incubation with detection solution. Percent phosphorylation activity was plotted against log concentration of compound to generate an apparent ICSO. The following CDK enzyme in complex with different cyclin proteins and protein peptide substrate were used in these assays: • CDK1/CyclinB1, Avi-tag, 10 pM used in the assay • CDK2/CyclinE1, Avi-tag, 100 pM used in the assay • CDK4/cyclinD1, Avi-tag, 20 pM used in the assay • CDK6/cyclinD3, Avi-tag, 10 pM used in the assay • His-MBP-RB1[773-924], Avi-tag, 200 nM used in the assay
(§2) The avi-tag is a C-terminal fusion on the CDK1/2/4/6 sequence in each of these two-protein complexes. The known avi-tag sequence, […] (SEQ ID NO. 10), is a substrate for E. coli biotin ligase BirA, which covalently attaches a biotin molecule to the e-amino group of the lysine in that sequence. The avi-tag is attached with an 8 amino-acid linker sequence GGSGGGGS (SEQ ID NO. 11), resulting in the full C-terminal fusion
(§3) Recombinant proteins were generated as N-terminal fusions of 9× His tag—E. coli Maltose Binding Protein (MBP), with or without a C-terminal Avi-tag.^1 CDK2 and His-MBP-RB1[773-924]-c-avi were expressed in E. coli while the remainder were expressed in Sf21 insect cells. Genes were synthesized commercially (GeneArt and Twist Bioscience) using codon frequencies appropriate to the respective organisms and proprietary codon optimization strategies, and inserted into pET 24 (E. coli) or pDEST8 (insect) vectors already containing the 9× His-MBP tag using standard methods of PCR and Gibson Assembly.^2 E. coli expression was performed by auto-induction overnight at 18 or 21 C. For insect cell expression, bacmids and viruses were created,^3 then used to synchronously infect Sf21 insect cells with harvest at 40-48 hrs., per standard protocols.^4
(§4) For CDK2/Cyclin E and CDK1/Cyclin B, the CDK and Cyclin proteins were expressed separately, lysed by sonication and clarified by centrifugation. The fusion proteins were each separately purified by immobilized metal ion affinity chromatography (IMAC) (5 mL HisTrap, Cytiva) and Superdex 200 26/60 (Cytiva) size-exclusion and complexed in vitro (1-3 hrs incubation at room temperature) prior to tag cleavage by recombinant his-tagged Tobacco Etch Virus protease or his-tagged Human rhinovirus 3C protease, as appropriate. The cleaved complex is further purified by Superdex 75 26/60 (Cytiva) size-exclusion followed by reverse-IMAC, in which the complex is in the column flow-through and residual His-MBP and his-tagged proteases are retained. The final complex is concentrated as desired by centrifugal concentration (Amicon Ultra 10,000 Da MWCO 15 mL concentrators, Millipore).
(§5) For the is-MBP-RB1[773-924]-c-avi, the protein was lysed by sonication and clarified by centrifugation. […]

[2] = biological target: CDK2/CyclinE1 (Homo sapiens, UniProt P24941); settings: CDK2/CyclinE1 100 pM, 1 mM ATP, 60 min at 25° C.
Method: as §1, §2, §3, §4
For E. coli expressed CDK2 and His-MBP-RB1[773-924]-c-avi, the proteins were biotinylated in vitro after the first IMAC step.^1
as §5

[3] = biological target: CDK6/cyclinD3 (Homo sapiens, UniProt Q00534); settings: CDK6/cyclinD3 10 pM, 1 mM ATP, 60 min at 25° C.
Method: as §1, §2, §3
(§6) For CDK4/Cyclin D1 and CDK6/Cyclin D3, the complexes were expressed by simultaneous co-infection of insect cells by three separate viruses including one expressing untagged E. coli BirA. The expression media is supplemented with 50 uM d-biotin. The resulting protein complexes purified similarly. After lysis and clarification, the complex is purified by IMAC, Superdex 200 26/60 size exclusion, tag cleavage by human rhinovirus 3C protease, Superdex 75 26/60 size exclusion and reverse IMAC. BirA is typically not retained on the first IMAC, and excess CDK or Cyclin monomer is separated on the Superdex 200 size exclusion. Cleaved His-MBP and remaining monomer are removed by the Superdex 75 size exclusion and the reverse IMAC step. Final concentration by centrifugal concentrators as described above.
as §5

[4] = biological target: CDK4/cyclinD1 (Homo sapiens, UniProt P11802); settings: CDK4/cyclinD1 20 pM, 1 mM ATP, 60 min at 25° C.
Method: as §1, §2, §3, §6, §5

| IC50 [1] [µM] | IC50 [2] [µM] | IC50 [3] [µM] | IC50 [4] [µM] | Compound |
| --- | --- | --- | --- | --- |
| 4.27 | 0.022 | 9.8 | 6.95 | O=C1N([C@@H]2CCC[C@@H](O)C2)c2nc(Nc3c[nH]nc3OC3CCC(F)(F)C3)ncc2C12CC2 (some centres unmarked) [Example 30] |
| 6.57 | 0.021 | 9.7 | 6.3 | Cn1ncc(-c2n[nH]cc2Nc2ncc3c(n2)N([C@@H]2CCC[C@@H](O)C2)C(=O)C32CC2)c1C(F)F [Example 31, 2′-((5′-(difluoromethyl)-1′-methyl-1H,1′H-[3,4′-bipyrazol]-4-yl)amino)-7′-((1R,3R)-3-hydroxycyclohexyl)spiro[cyclopropane-1,5′-pyrrolo[2,3-d]pyrimidin]-6′(7′H)-one] |
| 3.76 | 0.049 | ≥ 10 | ≥ 10 | O=C1N([C@@H]2CCC[C@@H](O)C2)c2nc(Nc3c[nH]nc3[C@@H]3CC3(F)F)ncc2C12CC2 [Example 33, 2′-((3-((S)-2,2-difluorocyclopropyl)-1H-pyrazol-4-yl)amino)-7′-((1R,3R)-3-hydroxycyclohexyl)spiro[cyclopropane-1,5′-pyrrolo[2,3-d]pyrimidin]-6′(7′H)-one] |
| 2.31 | 0.01 | 3.31 | 3.31 | O=C1N([C@@H]2CCC[C@@H](O)C2)c2nc(Nc3c[nH]nc3-c3cnn(C(F)F)c3)ncc2C12CC2 [Example 34, 2′-((1′-(difluoromethyl)-1H,1′H-[3,4′-bipyrazol]-4-yl)amino)-7′-((1R,3R)-3-hydroxycyclohexyl)spiro[cyclopropane-1,5′-pyrrolo[2,3-d]pyrimidin]-6′(7′H)-one] |
| 3.16 | 0.054 | ≥ 10 | ≥ 10 | Cn1cc(Oc2n[nH]cc2Nc2ncc3c(n2)N([C@@H]2CCC[C@@H](O)C2)C(=O)C32CC2)cn1 [Example 35, 7′-((1R,3R)-3-hydroxycyclohexyl)-2′-((3-((1-methyl-1H-pyrazol-4-yl)oxy)-1H-pyrazol-4-yl)amino)spiro[cyclopropane-1,5′-pyrrolo[2,3-d]pyrimidin]-6′(7′H)-one] |
| 4.99 | 0.039 | ≥ 10 | ≥ 10 | O=C1N([C@@H]2CCC[C@@H](O)C2)c2nc(Nc3c[nH]nc3C#Cc3cccnc3)ncc2C12CC2 [Example 36, 7′-((1R,3R)-3-hydroxycyclohexyl)-2′-((3-(pyridin-3-ylethynyl)-1H-pyrazol-4-yl)amino)spiro[cyclopropane-1,5′-pyrrolo[2,3-d]pyrimidin]-6′(7′H)-one] |
| ≥ 10 | 0.031 | ≥ 10 | ≥ 10 | Cc1c(-c2n[nH]cc2Nc2ncc3c(n2)N([C@@H]2CCC[C@@H](O)C2)C(=O)C32CC2)cnn1C [Example 37, 2′-((1′,5′-dimethyl-1H,1′H-[3,4′-bipyrazol]-4-yl)amino)-7′-((1R,3R)-3-hydroxycyclohexyl)spiro[cyclopropane-1,5′-pyrrolo[2,3-d]pyrimidin]-6′(7′H)-one] |
| 1.04 | 0.008 | 9.2 | 6.1 | O=C1N([C@@H]2CCC[C@@H](O)C2)c2nc(Nc3c[nH]nc3OCC3CC3)ncc2C12CC2 [Example 38, 2′-((3-(cyclopropylmethoxy)-1H-pyrazol-4-yl)amino)-7′-((1R,3R)-3-hydroxycyclohexyl)spiro[cyclopropane-1,5′-pyrrolo[2,3-d]pyrimidin]-6′(7′H)-one] |
| 1.2 | 0.007 | 2.95 | 1.43 | O=C1N([C@@H]2CCC[C@@H](O)C2)c2nc(Nc3c[nH]nc3OCCF)ncc2C12CC2 [Example 39, 2′-((3-(2-fluoroethoxy)-1H-pyrazol-4-yl)amino)-7′-((1R,3R)-3-hydroxycyclohexyl)spiro[cyclopropane-1,5′-pyrrolo[2,3-d]pyrimidin]-6′(7′H)-one] |
| 0.73 | 0.005 | 5.09 | 2.68 | O=C1N([C@@H]2CCC[C@@H](O)C2)c2nc(Nc3c[nH]nc3OCC(F)F)ncc2C12CC2 [Example 41, 2′-((3-(2,2-difluoroethoxy)-1H-pyrazol-4-yl)amino)-7′-((1R,3R)-3-hydroxycyclohexyl)spiro[cyclopropane-1,5′-pyrrolo[2,3-d]pyrimidin]-6′(7′H)-one] |
| 3.74 | 0.024 | 3.01 | 3.64 | O=C1N([C@@H]2CCC[C@@H](O)C2)c2nc(Nc3c[nH]nc3OCCO)ncc2C12CC2 [Example 42, 7′-((1R,3R)-3-hydroxycyclohexyl)-2′-((3-(2-hydroxyethoxy)-1H-pyrazol-4-yl)amino)spiro[cyclopropane-1,5′-pyrrolo[2,3-d]pyrimidin]-6′(7′H)-one] |
| 1.76 | 0.019 | 8.84 | 3.09 | Cn1ccc(COc2n[nH]cc2Nc2ncc3c(n2)N([C@@H]2CCC[C@@H](O)C2)C(=O)C32CC2)n1 [Example 43, 7′-((1R,3R)-3-hydroxycyclohexyl)-2′-((3-((1-methyl-1H-pyrazol-3-yl)methoxy)-1H-pyrazol-4-yl)amino)spiro[cyclopropane-1,5′-pyrrolo[2,3-d]pyrimidin]-6′(7′H)-one] |

| Compound | IC50 [1] [µM] | IC50 [2] [µM] | IC50 [3] [µM] | IC50 [4] [µM] |
| --- | --- | --- | --- | --- |
| O=C1N([C@@H]2CCC[C@@H](O)C2)c2nc(Nc3c[nH]nc3OC3CC(F)(F)C3)ncc2C12CC2 [Example 29, 2′-((3-(3,3-difluorocyclobutoxy)-1H-pyrazol-4-yl)amino)-7′-((1R,3R)-3-hydroxycyclohexyl)spiro[cyclopropane-1,5′-pyrrolo[2,3-d]pyrimidin]-6′(7′H)-one] | 3.84 | 0.026 | ≥ 10 | 7.4 |
| O=C1N([C@@H]2CCC[C@@H](O)C2)c2nc(Nc3c[nH]nc3OC3CCC3)ncc2C12CC2 [Example 40, 2′-((3-cyclobutoxy-1H-pyrazol-4-yl)amino)-7′-((1R,3R)-3-hydroxycyclohexyl)spiro[cyclopropane-1,5′-pyrrolo[2,3-d]pyrimidin]-6′(7′H)-one] | 2.89 | 0.026 | ≥ 10 | ≥ 10 |
